In ChEMBL document CHEMBL5584313, “Design and Synthesis of 7-Oxabicyclo[2.2.1]heptane-2,3-dicarboxylic Acid Derivatives as PP5 Inhibitors To Reverse Temozolomide Resistance in Glioblastoma Multiforme” (J Med Chem, 2024):
Values after ≈ are worked out from the molar mass of the structure shown. Active and inactive are the calls of the source. The rule behind the calls is not given here.

What was measured:
A549 = assay: Cytotoxicity against human A549 cells incubated for 48 hrs by CCK8 assay; type: functional, cell-based; details: A549, 48 h
U-87 MG [1] = assay: Synergistic antiproliferative activity against human U-87 MG cells at 10 uM in presence of TMZ; type: functional, cell-based; details: U-87MG ATCC
U-87 MG [2] = assay: Induction of apoptosis in human U-87 MG cells assessed as G0/G1 phase cells at 5 uM incubated for 24 hrs by propidium iodide staining based flow cytometry analysis (reference value: 58.8%); type: functional, U-87MG ATCC
U-87 MG [3] = assay: Induction of apoptosis in human U-87 MG cells assessed as S phase cells at 5 uM incubated for 24 hrs by propidium iodide staining based flow cytometry analysis (reference value: 29.4%); type: functional, U-87MG ATCC
U-87MG ATCC [4] = assay: Upregulation of p21 expression in human U-87 MG cells at 6.25 to 100 uM after 24 hrs by Western blotting analysis; type: functional, cell-based; details: dose 6.25-100 µM
U-87MG ATCC [5] = assay: Downregulation of cyclin D1 expression in human U-87 MG cells at 25 uM incubated for 24 hrs by Western blotting analysis; type: functional, cell-based
[6] = Aqueous solubility of compound by HPLC method; type: physicochemical; details: water
[7] = Stability of compound in stimulated gastric fluid assessed as remaining compound after 24 hrs by HPLC method; type: ADME; details: simulated gastric fluid, read-out: Stability
[8] = Cmax in Sprague-Dawley rat at 5 mg/kg, iv measured upto 24 hrs by LC-MS/MS method; type: ADME, organism-based; details: in vivo
[9] = Tmax in Sprague-Dawley rat at 25 mg/kg, po measured upto 24 hrs by LC-MS/MS method; type: ADME, organism-based; details: in vivo
[10] = Apparent clearance in Sprague-Dawley rat at 25 mg/kg, po measured upto 24 hrs by LC-MS/MS method; type: ADME, organism-based; details: in vivo, read-out: CL(app) (converted)
U-87 MG [11] = assay: Antitumor activity against human U-87 MG cells xenografted in BALB/c nude mouse assessed as reduction in tumor weight at 3 mg/kg, po administered every other day for 18 days in presence of 40 mg/kg TMZ; type: functional, organism-based; details: U-87MG ATCC, time 18.0 day
[12] = Toxicity in BALB/c nude mouse xenografted with U-87 MG cells assessed as change in body weight at 1.5 to 3 mg/kg, po administered every other day for 18 days in presence of 40 mg/kg TMZ; type: organism-based; details: in vivo, 432 h, dose 1.5-3 mg/kg, time 18 day
U-87 MG [13] = assay: Antitumor activity against human U-87 MG cells xenografted in BALB/c nude mouse assessed as increase in p53 expression at 3 mg/kg, po measured after 4 hrs by Western blotting analysis; type: functional, organism-based; details: U-87MG ATCC
[14] = Toxicity in BALB/c nude mouse xenografted with U-87 MG cells assessed as liver damage at 1.5 to 3 mg/kg, po administered every other day for 18 days in presence of 40 mg/kg TMZ by H and E staining based assay; type: organism-based; details: in vivo, 432 h, dose 1.5-3 mg/kg, time 18 day
[15] = Toxicity in BALB/c nude mouse xenografted with U-87 MG cells assessed as spleen damage at 1.5 to 3 mg/kg, po administered every other day for 18 days in presence of 40 mg/kg TMZ by H and E staining based assay; type: organism-based; details: in vivo, 432 h, dose 1.5-3 mg/kg, time 18 day

In the case of O=C(O)[C@@H]1[C@H](C(=O)n2ccc3ccccc32)[C@H]2CC[C@@H]1O2, the IC50 (A549) is reported as 69.6 µM, the Activity (U-87 MG [1]) is reported as “Active” and the Activity (U-87 MG [2]) is reported as 72.2%. The Activity (U-87 MG [3]) was 19.2%, the Activity (U-87MG ATCC [4]) was “Active” and the Activity (U-87MG ATCC [5]) was “Active”. The solubility [6] was 552 µg/mL (≈ 1930 µM), the remaining at 24 h [7] was 92% and the Cmax [8] was 8620 ng/mL. The Tmax [9] was 1.17 h, the CL/F [10] was 7.69 mL/min/kg and the Activity (U-87 MG [11]) was “Active”. The Activity [12] was “Non-Toxic”, the Activity (U-87 MG [13]) was “Active” and the Activity [14] was “Non-Toxic”. The Activity [15] was “Non-Toxic”.
